The values that follow come from ChEMBL document CHEMBL1667817, “Design, synthesis and biological evaluation of new arylpiperazine derivatives bearing a flavone moiety as α1-adrenoceptor antagonists” (Bioorg Med Chem Lett, 2011).

The test addresses T1, Adrenergic receptor alpha-1 (Rattus norvegicus, UniProt P15823+P23944+P43140).
T1 sequence (P15823 whole entry): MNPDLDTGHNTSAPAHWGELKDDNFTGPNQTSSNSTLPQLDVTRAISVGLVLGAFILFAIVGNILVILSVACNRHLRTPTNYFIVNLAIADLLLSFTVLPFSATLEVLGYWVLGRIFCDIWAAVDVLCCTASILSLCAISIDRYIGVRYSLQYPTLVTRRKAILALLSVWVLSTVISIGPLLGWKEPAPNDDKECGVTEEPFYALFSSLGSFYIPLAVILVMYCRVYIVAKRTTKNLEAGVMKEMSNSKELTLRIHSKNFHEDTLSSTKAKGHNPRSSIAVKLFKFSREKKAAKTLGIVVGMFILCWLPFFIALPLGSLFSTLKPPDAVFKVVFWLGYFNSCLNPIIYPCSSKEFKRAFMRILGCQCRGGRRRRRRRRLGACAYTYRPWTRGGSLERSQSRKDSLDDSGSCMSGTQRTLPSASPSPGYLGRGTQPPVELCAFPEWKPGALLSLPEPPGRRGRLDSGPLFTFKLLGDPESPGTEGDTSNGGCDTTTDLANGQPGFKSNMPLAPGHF
T1 sequence (P23944 whole entry): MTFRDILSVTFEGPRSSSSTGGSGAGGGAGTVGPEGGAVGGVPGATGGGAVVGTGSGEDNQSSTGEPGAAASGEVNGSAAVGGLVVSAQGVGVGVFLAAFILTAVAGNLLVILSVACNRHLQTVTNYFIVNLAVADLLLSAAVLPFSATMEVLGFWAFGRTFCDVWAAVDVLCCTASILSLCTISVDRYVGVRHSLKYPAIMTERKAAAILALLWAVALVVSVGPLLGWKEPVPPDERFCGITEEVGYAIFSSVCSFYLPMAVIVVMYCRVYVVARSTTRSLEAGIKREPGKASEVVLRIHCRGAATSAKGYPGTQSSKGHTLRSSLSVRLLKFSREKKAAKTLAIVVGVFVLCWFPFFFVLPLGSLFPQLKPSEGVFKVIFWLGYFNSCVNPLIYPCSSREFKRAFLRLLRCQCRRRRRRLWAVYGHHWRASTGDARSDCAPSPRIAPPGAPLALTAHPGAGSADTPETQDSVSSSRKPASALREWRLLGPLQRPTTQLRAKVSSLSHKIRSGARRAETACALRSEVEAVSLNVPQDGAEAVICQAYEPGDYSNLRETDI
T1 sequence (P43140 whole entry): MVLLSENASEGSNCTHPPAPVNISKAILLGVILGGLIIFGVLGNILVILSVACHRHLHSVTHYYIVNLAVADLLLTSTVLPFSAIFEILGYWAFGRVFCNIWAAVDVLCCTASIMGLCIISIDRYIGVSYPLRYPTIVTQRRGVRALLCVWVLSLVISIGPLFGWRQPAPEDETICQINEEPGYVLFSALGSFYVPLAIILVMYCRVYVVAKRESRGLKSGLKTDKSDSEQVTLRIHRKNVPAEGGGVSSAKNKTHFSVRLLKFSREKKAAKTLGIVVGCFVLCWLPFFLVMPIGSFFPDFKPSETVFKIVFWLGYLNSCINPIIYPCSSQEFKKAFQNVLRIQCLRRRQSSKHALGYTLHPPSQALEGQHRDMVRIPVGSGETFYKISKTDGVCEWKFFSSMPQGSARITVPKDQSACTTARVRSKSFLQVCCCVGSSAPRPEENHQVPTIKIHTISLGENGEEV
The test can be described thus: Antagonist activity at alpha1-adrenoceptor in rat anococcygeal muscle assessed as inhibition of phenylephrine-induced contraction. Format: functional.
In general, pA2 refers to the negative logarithm of the molar antagonist concentration that doubles the agonist concentration needed for the same response. Turning to `Cc1ccccc1N1CCN(CCOc2ccc3c(=O)cc(-c4ccccc4)oc3c2)CC1`, the pA2 is 7.383.

In the case of `Cc1ccc(N2CCN(CCOc3ccc4c(=O)cc(-c5ccc(Cl)cc5)oc4c3)CC2)cc1`, the pA2 is 8.93.

`O=c1cc(-c2ccc(Cl)cc2)oc2cc(OCCCCBr)ccc12`: the pA2 was 6.368.

`Cc1ccc(N2CCN(CCCOc3ccc4c(=O)cc(-c5ccc(Cl)cc5)oc4c3)CC2)cc1`: the pA2 came out at 8.088.

Take `O=c1cc(-c2ccccc2)oc2cc(OCCN3CCN(c4ccccc4)CC3)ccc12`: the pA2 amounted to 8.526.

`O=c1cc(-c2ccccc2)oc2cc(OCCCN3CCN(c4ccccc4)CC3)ccc12`: the pA2 came out at 8.177.

On to `Cc1ccc(N2CCN(CCCCOc3ccc4c(=O)cc(-c5ccccc5)oc4c3)CC2)cc1`, for which the pA2 was determined as 6.709.

For the molecule `Cc1ccccc1N1CCN(CCCCOc2ccc3c(=O)cc(-c4ccccc4)oc3c2)CC1`, the pA2 is recorded as 7.71.

`Cc1ccccc1N1CCN(CCCOc2ccc3c(=O)cc(-c4ccccc4)oc3c2)CC1`: the pA2 worked out at 6.93.

For the molecule `O=c1cc(-c2ccccc2)oc2cc(O)ccc12` [7-HYDROXYFLAVONE], the pA2 is 6.609.

`O=c1cc(-c2ccccc2)oc2cc(OCCCCN3CCN(c4ccccc4)CC3)ccc12`: the pA2 came out at 8.333.

As to `O=c1cc(-c2ccccc2)oc2cc(OCCCBr)ccc12`, the pA2 was determined as 6.409.

For `Cc1ccc(N2CCN(CCCOc3ccc4c(=O)cc(-c5ccccc5)oc4c3)CC2)cc1`, the pA2 is 7.684.

Turning to `O=c1cc(-c2ccc(Cl)cc2)oc2cc(OCCCN3CCN(c4ccccc4)CC3)ccc12`, the pA2 was determined as 8.072.

`O=c1cc(-c2ccccc2)oc2cc(OCCBr)ccc12`: the pA2 is given as 6.897.

As for `Cc1ccc(N2CCN(CCCCOc3ccc4c(=O)cc(-c5ccc(Cl)cc5)oc4c3)CC2)cc1`, the pA2 is 8.498.

On to `O=c1cc(-c2ccc(Cl)cc2)oc2cc(OCCN3CCN(c4ccccc4)CC3)ccc12`, for which the pA2 is reported as 8.579.

In the case of `Cc1ccccc1N1CCN(CCOc2ccc3c(=O)cc(-c4ccc(Cl)cc4)oc3c2)CC1`, the pA2 was 8.207.

As for `O=c1cc(-c2ccc(Cl)cc2)oc2cc(OCCCCN3CCN(c4ccccc4)CC3)ccc12`, the pA2 turned out to be 7.914.

On to `Cc1ccc(N2CCN(CCOc3ccc4c(=O)cc(-c5ccccc5)oc4c3)CC2)cc1`, for which the pA2 was found to be 8.647.

For `Cc1ccccc1N1CCN(CCCCOc2ccc3c(=O)cc(-c4ccc(Cl)cc4)oc3c2)CC1`, the pA2 is 7.471.

As for `O=c1cc(-c2ccccc2)oc2cc(OCCCCBr)ccc12`, the pA2 was 6.538.

For `Cc1ccccc1N1CCN(CCCOc2ccc3c(=O)cc(-c4ccc(Cl)cc4)oc3c2)CC1`, the pA2 is given as 7.772.

As for `O=c1cc(-c2ccc(Cl)cc2)oc2cc(OCCBr)ccc12`, the pA2 is 6.925.

For the molecule `O=c1cc(-c2ccc(Cl)cc2)oc2cc(O)ccc12`, the pA2 amounted to 6.845.

Consider `O=c1cc(-c2ccc(Cl)cc2)oc2cc(OCCCBr)ccc12`, for which the pA2 is listed as 6.168.
